Assay results: article PMC5054527, “Mechanism of high affinity inhibition of the human urate transporter URAT1” (Scientific Reports, 2016)

Tests used:
rat URAT1 = biological target: T1, rat URAT1 (Rattus norvegicus, UniProt Q3ZAV1); test: ^3H-RDEA3170 URAT1 membrane binding assay; conditions: 500 nM ^3H-RDEA3170; membranes from transfected cells
T1 construct: hURAT1 and rURAT1 are 553 amino acid proteins with 12 transmembrane segments; expressed in transfected cells; host or cells: URAT1-transfected cells (HEK-293T per the transfection section)
T1 sequence (Q3ZAV1 whole entry): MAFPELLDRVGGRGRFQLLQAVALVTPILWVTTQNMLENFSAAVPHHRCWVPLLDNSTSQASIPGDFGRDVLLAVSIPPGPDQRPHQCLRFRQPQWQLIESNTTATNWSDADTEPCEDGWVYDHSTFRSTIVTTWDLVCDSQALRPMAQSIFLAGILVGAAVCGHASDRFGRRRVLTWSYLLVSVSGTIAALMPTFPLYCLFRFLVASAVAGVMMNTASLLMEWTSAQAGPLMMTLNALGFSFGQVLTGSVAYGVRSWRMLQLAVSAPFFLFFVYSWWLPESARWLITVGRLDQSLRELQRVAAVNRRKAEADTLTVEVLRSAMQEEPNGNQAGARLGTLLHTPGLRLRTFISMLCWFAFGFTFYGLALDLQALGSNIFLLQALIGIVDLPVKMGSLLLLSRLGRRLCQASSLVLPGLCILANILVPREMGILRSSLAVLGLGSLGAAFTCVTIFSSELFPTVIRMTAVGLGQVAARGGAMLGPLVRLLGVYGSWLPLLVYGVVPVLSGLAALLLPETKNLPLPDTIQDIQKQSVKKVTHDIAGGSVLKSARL
Experimental: (§1) Membranes were prepared from URAT1-transfected cells. […] Cells were lysed with 100 strokes in a dounce homogenizer using a tight-fitting “B” stem. Lysates were transferred to 1.5 ml Eppendorf tubes and centrifuged at 250 rcf for 5 minutes at 2 °C, and supernatants were transferred to fresh tubes and centrifuged again at 18,000 rcf for 20 minutes at 2 °C. The pellets (membrane fractions) were resuspended in 1 ml of ice-cold binding buffer containing protease inhibitors and frozen at −80 °C. Protein was measured using the Bio-Rad protein assay dye reagent concentrate.
(§2) To initiate binding, membranes at 2.5 μg total protein were incubated with ^3H-RDEA3170 for 30 minutes at room temperature. […] The plates were then subjected to scintillation counting. All samples were assayed in triplicate.

human URAT1 = biological target: T2, human URAT1 (Homo sapiens, UniProt Q96S37); test: ^3H-RDEA3170 URAT1 membrane binding assay
T2 construct: hURAT1 and rURAT1 are 553 amino acid proteins with 12 transmembrane segments; expressed in transfected cells; host or cells: URAT1-transfected cells (HEK-293T per the transfection section)
T2 sequence (Q96S37 1-553): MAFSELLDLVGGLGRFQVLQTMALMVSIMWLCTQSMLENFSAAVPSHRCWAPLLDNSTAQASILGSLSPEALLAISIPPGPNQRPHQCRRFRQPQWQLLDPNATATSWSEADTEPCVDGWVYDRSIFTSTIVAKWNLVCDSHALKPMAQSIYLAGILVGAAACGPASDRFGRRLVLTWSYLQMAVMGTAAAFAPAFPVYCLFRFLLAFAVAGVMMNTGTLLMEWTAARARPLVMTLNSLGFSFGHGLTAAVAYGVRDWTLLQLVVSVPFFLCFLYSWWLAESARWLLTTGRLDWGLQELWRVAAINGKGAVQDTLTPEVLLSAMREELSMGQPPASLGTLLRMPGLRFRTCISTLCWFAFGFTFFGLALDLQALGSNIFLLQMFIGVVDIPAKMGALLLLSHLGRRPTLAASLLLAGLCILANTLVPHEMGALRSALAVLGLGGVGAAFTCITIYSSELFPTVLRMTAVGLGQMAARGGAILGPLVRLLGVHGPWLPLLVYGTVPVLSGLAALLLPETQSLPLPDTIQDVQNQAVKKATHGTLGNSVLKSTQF
Experimental: as §1, §2

Row | binding of probe to rat URAT1 membranes (rat URAT1) | binding of probe to human URAT1 membranes (human URAT1; 500 nM ^3H-RDEA3170, membranes from transfected cells) | displacement of ^3H-RDEA3170 binding to hURAT1 (human URAT1; human URAT1 membranes, 10 nM ^3H-RDEA3170) | SMILES
1 | not rat URAT1 | binds to human URAT1 | – | CC(C)(Sc1ccncc1-c1ccc(C#N)c2ccccc12)C(=O)O [^3H-RDEA3170, 2-((3-(4-cyanonaphthalen-1-yl)pyrindin-4-yl)thio)-2-methylpropanoic acid]
2 | – | – | displace binding of the probe | CCCN(CCC)S(=O)(=O)c1ccc(C(=O)O)cc1 [probenecid]
